# Assay: High-throughput single time point substrate depletion microsomal stability assay
# Format: in vitro ADME
# Conditions: Sprague-Dawley, control compounds, mean ± S.D across 600 plates, 0.5 mg/mL rat microsomal protein, 1.0 μM drug, NADPH regeneration system, pH 7.4, 37 °C, 15 min, t1/2 capped at 30 min
# Protocol: Microsomal stability of the test articles was determined in a high-throughput format using the substrate depletion method. […] Sprague-Dawley was chosen because it is the most common strain used in drug discovery. Experiments were performed using a Freedom Evo 200 automated platform with a 96-channel (MCA96) head with EVOware software (version 3.2) (Tecan Inc., Männedorf, Switzerland). The system also includes an Inheco heating block and cooling block (Inheco, Munich, Germany). […] The assay incubation system consisted of 0.5 mg/mL of rat microsomal protein, 1.0 μM drug concentration, and NADPH regeneration system (containing 0.650 mM NADP + , 1.65 mM glucose 6-phosphate, 1.65 mM MgCl2, and 0.2 unit/mL G6PDH) in 100 mM phosphate buffer at pH 7.4. The incubation was carried out at 37 °C for 15 min. The reaction was quenched by adding 555 μL of acetonitrile containing 0.28 μM albendazole, an internal standard. After a 20-min centrifugation at 3000 rpm at 4 °C, 30 μL of the supernatant was transferred to an analysis plate and was diluted fivefold using 1:2 v/v acetonitrile/water. […] The raw data set was preprocessed to generate training and test data for the purpose of building and validating prediction models. […] Detailed steps involved in preprocessing the raw data set are provided in the supplementary information (Table S1).
structure (smiles),measurement,setting,value
"Cc1cc(=O)n(-c2ccccc2)n1C [Antipyrine, antipyrine]",half-life at 1 μM,microsomes,> 30 min
"O=C1CC2(CCCC2)CC(=O)N1CCCCN1CCN(c2ncccn2)CC1 [Buspirone, buspirone]",half-life at 1 μM,rat liver microsomes,3.8 ± 1.1 min
"NC(=O)N1c2ccccc2C=Cc2ccccc21 [Carbamazepine, carbamazepine]",half-life at 1 μM,rat liver microsomes,> 30 min
"O=C(O)Cc1ccccc1Nc1c(Cl)cccc1Cl [Diclofenac, diclofenac]",half-life at 1 μM,rat liver microsomes,11.4 ± 2.6 min
"CC(C)NCC(O)COc1cccc2ccccc12 (centres unmarked) [Propranolol, propranolol]",half-life at 1 μM,rat liver microsomes,1.4 ± 0.3 min

# — paper PMC7693334, “Retrospective assessment of rat liver microsomal stability at NCATS: data and QSAR models” (Scientific Reports, 2020)
